# What was measured:
# [1] = target: cGMP-inhibited 3',5'-cyclic phosphodiesterase 3A (Homo sapiens, UniProt Q14432); test: Inhibition of PDE3A (679 to 1087 residues) (unknown origin) expressed in Escherichia coli BL21(DE3) using [3H]cAMP or [3H]cGMP as substrate after 15 mins by liquid scintillation counting method
# [2] = target: T1, Cytochrome P450 2C8 (Homo sapiens, UniProt P10632); test: Inhibition of CYP2C8 in human microsomes in presence of NADPH; assay type: ADME
# T1 sequence (P10632 whole entry): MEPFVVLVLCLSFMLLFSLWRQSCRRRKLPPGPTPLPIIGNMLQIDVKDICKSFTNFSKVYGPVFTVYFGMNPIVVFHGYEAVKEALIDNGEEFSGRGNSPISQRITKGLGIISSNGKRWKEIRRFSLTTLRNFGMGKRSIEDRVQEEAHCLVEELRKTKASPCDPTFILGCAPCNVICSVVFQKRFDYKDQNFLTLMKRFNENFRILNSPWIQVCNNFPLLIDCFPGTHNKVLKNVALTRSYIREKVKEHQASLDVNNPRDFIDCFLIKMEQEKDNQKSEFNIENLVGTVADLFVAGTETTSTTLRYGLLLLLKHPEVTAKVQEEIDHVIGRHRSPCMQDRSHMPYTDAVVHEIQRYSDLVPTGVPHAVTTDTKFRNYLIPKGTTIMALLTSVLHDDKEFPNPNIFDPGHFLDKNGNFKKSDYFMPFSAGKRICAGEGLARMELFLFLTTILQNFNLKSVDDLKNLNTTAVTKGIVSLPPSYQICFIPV
# [3] = AUC (0 to infinity) in Sprague-Dawley rat at 5 mg/kg, po by LC-MS/MS analysis; assay type: ADME, organism-based; design: dose 5 mg/kg, time infinity, route oral; conditions: in vivo
# [4] = target: T2, Cytochrome P450 1A2 (Homo sapiens, UniProt P05177); test: Inhibition of CYP1A2 in human microsomes in presence of NADPH; assay type: ADME
# T2 sequence (P05177 whole entry): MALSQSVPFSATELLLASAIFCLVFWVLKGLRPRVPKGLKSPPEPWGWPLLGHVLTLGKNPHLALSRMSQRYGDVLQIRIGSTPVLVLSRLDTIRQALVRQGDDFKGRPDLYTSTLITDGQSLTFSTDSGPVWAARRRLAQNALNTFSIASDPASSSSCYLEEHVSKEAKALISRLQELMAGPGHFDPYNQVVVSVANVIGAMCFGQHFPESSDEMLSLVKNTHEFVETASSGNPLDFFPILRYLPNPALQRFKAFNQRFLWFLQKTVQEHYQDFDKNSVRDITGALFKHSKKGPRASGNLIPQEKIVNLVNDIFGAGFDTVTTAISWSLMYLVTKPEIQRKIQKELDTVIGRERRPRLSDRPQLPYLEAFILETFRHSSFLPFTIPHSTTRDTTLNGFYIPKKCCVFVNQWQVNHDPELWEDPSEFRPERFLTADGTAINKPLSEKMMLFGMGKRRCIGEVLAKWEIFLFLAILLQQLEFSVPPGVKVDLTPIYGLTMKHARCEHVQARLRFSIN
# [5] = AUC (0 to t) in Sprague-Dawley rat at 5 mg/kg, po by LC-MS/MS analysis; assay type: ADME, organism-based; conditions: in vivo
# [6] = test system: Mus musculus; test: Acute toxicity in Kunming mouse assessed as poisoning symptoms at 1000 to 1500 mg/kg, po administered as single dose measured up to 2 weeks post dose; assay type: organism-based; conditions: in vivo, 336 h
# [7] = Hepatic clearance in rat liver microsomes at 0.5 uM; assay type: ADME, microsome
# [8] = Half life in Sprague-Dawley rat at […], iv by LC-MS/MS analysis; assay type: ADME, organism-based; conditions: in vivo
# [9] = test system: Liver; test: Intrinsic clearance in human liver microsomes at 0.5 uM; assay type: ADME, microsome
# Sequence of cGMP-inhibited 3',5'-cyclic phosphodiesterase 3A (Q14432 whole entry, the tested form may be a part): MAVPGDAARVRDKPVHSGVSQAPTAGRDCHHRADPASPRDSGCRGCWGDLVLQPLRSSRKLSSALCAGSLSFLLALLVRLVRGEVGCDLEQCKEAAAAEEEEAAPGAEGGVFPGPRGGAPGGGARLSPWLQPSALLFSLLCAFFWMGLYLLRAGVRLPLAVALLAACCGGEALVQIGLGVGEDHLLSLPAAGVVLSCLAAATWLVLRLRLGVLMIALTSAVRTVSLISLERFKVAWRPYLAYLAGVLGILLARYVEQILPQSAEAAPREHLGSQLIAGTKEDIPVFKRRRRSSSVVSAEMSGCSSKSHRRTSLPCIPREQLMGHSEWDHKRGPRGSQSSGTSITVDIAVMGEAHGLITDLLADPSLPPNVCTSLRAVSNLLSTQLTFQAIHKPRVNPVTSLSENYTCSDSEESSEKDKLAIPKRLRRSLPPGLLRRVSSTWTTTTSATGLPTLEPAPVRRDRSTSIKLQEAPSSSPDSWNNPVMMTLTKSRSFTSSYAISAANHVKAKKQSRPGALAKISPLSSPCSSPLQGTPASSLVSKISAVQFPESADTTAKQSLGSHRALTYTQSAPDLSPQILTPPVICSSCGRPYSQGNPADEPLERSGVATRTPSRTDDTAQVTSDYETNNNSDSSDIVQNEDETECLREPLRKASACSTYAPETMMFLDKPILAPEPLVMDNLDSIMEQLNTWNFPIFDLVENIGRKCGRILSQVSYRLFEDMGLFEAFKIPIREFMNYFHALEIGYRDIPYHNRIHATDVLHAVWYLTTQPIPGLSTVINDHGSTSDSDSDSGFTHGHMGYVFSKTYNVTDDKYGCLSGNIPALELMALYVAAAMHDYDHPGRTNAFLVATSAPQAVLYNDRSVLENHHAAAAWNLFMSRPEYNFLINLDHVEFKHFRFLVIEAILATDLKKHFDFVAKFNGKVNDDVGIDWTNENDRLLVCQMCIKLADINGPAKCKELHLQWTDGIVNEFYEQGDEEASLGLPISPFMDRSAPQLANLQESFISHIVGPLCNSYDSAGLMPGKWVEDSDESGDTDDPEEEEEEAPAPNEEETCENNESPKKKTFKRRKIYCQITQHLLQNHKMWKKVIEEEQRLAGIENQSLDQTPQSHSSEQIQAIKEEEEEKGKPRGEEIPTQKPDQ
compound,measurement,setting,value
O=c1c2ccccc2oc2c(Cc3ccc4c(c3)OCO4)[nH]c(-c3nccs3)c12,IC50,[1],> 10 µM
same,IC50,[2],> 25 µM
same,AUC(0-inf),[3],2030 ng·h/mL
same,IC50,[4],7.6 µM
same,AUC(0-t),[5],2000 ng·h/mL
same,Activity,[6],Non-Toxic
same,CLhep predicted at 0.5 µM,[7],35.6 mL/min/kg
same,half-life,[8],6.02 h
same,CLH,[9],24.8 µL/min/mg
